In ChEMBL document CHEMBL1144417, “Conformation mining: an algorithm for finding biologically relevant conformations” (J Med Chem, 2005):

What was measured:
[1] = molecular target: Cyclin-dependent kinase 2 (Homo sapiens, UniProt P24941); test: Inhibition of Cyclin-dependent kinase 2
[2] = Inhibitory activity against thrombin

Compound | IC50 [1] [nM] | Ki [2] [nM]
O=C1NC2C=CC=CC2/C1=C/Nc1ccc(S(=O)(=O)Nc2nccs2)cc1 (stereo not given) | 1000 | –
Cc1cc(NS(=O)(=O)c2ccccc2)cc(OCCNc2ccncc2)c1 | – | 23
N=C(N)NCCC[C@H](NC(=O)[C@@H]1CCN2CC[C@@](N)(Cc3ccccc3)C(=O)N12)C(=O)c1nccs1 | – | 2
N=C(N)c1ccc(C[C@@H](NC(=O)CNS(=O)(=O)c2ccc3ccccc3c2)C(=O)N2CCCCC2)cc1 | – | 7
C[C@@H]1CCN(C(=O)[C@H](CCCNC(=N)N)NS(=O)(=O)c2cccc3c2NC[C@H](C)C3)[C@@H](C(=O)O)C1 [ARGATROBAN] | – | 1
